EP0273272B1, “Pharmaceutical compositions containing 17-benzyl sparteine derivatives with a positive inotropic effect” (Kali-Chemie Pharma GmbH, priority 1986, dated 1988)

Experiments:
Mäusen = assay: Determination of the minimal toxic dose in mice; type: in vivo
Method: Männlichen Mäusen von 20-25 g Gewicht werden p.o. Maximaldosen von 300 mg/kg der Testsubstanz verabreicht. Die Tiere werden 3 Stunden lang sorgfältig auf Toxizitätssymptome beobachtet. über einen Zeitraum von 24 Stunden nach der Applikation werden zusätzlich alle Symptome und Todesfälle registriert. Begleitsymptome werden ebenfalls beobachtet und registriert. Wenn Tod oder starke toxische Symptome beobachtet werden, werden weiteren Mäusen zunehmend geringere Dosen verabreicht, bis keine toxischen Symptome mehr auftreten. Die niedrigste Dosis, welche Tod oder starke toxische Symptome hervorruft, wird als minimale toxische Dosis in der nachfolgenden Tabelle 2 angegeben. Tabelle 2

linken Herzvorhofes = assay: Functional refractory period of the isolated left atrium, paired electrical stimulation (antiarrhythmic effect); design: species or system Meerschweinchen; details: 0.3 h, concentration prolonging the functional refractory period to 125 % 18 min after application, guinea pig, read-out: Effektive Konzentration zur Erreichung von FRP 125 %
Excerpt: Der Nachweis der antiarrhythmischen Wirkung der Wirksubstanzen erfolgte experimentell durch Bestimmung der funktionellen Refraktärzeit des linken Herzvorhofes von weiblichen Albino Pirbright-white Meerschweinchen der Gewichtsklasse 300 bis 400 g mit Hilfe der gepaarten elektrischen Stimulation in Anlehnung an die Methode von Govier (W.C. Govier, J. Pharmacol. Exp. Ther. 148 (1) (1965), 100 bis 105). In der nachfolgenden Tabelle 3 ist als FRP 125 % diejenige Konzentration in µmol/l angegeben, bei der es 18 min nach Substanzapplikation zu einer Verlängerung der funktionellen Refraktärzeit auf 125 % kommt.

[1] = system: spontan schlagenden, isolierten rechten Vorhöfen; assay: Heart rate of spontaneously beating isolated right atria; design: species or system Meerschweinchen; details: 20 min, concentration lowering the rate to 75 % of the initial value 20 min after application, guinea pig, read-out: Effektive Konzentration zur Erreichung von FRQ 75 %
Method: Der direkte Einfluß der Wirksubstanz auf die Herzfrequenz (FRQ) wurde an spontan schlagenden, isolierten rechten Vorhöfen von weiblichen Albino Pirbright-white Meerschweinchen der Gewichtsklasse von 300 bis 400 g geprüft. In Tabelle 3 ist als FRQ 75 % diejenige Konzentration in µmol/l angegeben, bei der es 20 min nach der Substanzgabe zu einer Abnahme der Frequenz auf 75 % des Ausgangwertes kommt. Tabelle 3

narkotisierten Ratten = assay: Myocardial oxygen consumption (double product, method of Neill) in anaesthetised rats; type: in vivo; details: used as dihydrochloride; for DP: double product (systolic pressure x heart rate); for FRQ: heart rate; for P₅: systolic blood pressure
Excerpt: Die Wirkung der Substanzen auf Blutdruck und Herzfrequenz bei i.v.-Dauerinfusion in narkotisierten Ratten wird nach der Methode von Buschmann et al. (J. Cardiovascular Pharmacol. 2 777-781 (1980)) bestimmt.
Männliche Wistar-Ratten (330-370 g Körpergewicht) werden durch i.p.-Applikation von 1,25 g/kg Urethan narkotisiert und tracheotomiert. Nach einer Äquilibrierungsphase von 10 Minuten wird mit den Messungen begonnen. In einer Vorlaufphase von 5 Minuten werden die Ausgangswerte gemessen. Anschließend werden die Prüfsubstanzen gelöst in isotonischer Natriumschloridlösung (gegebenenfalls mit Zusatz eines Lösungsvermittlers) als Dauerinfusion i.v. appliziert, beginnend mit einer Dosis vom 0,01 µmol/kg/min. Die Dosis wird alle 10 Minuten ohne Erhöhung des Infusionsvolumens auf das 10-fache gesteigert. Eine Kontrollgruppe erhält nur wirkstofffreie Lösung appliziert.
In dem gleichen Versuchsmodell wurde auch der Einfluß der Wirksubstanzen auf den myokardialen Sauerstoffverbrauch an narkotisierten Ratten untersucht und anhand der Methode von Neill (Neill, W.Z., H.H. Levine, R.J. Wagman, R. Gorlin, Circulation Research 12 (1963), 163) berechnet. Dazu wird das Produkt aus systolischem Blutdruck und Herzfrequenz (= Doppelprodukt mm Hg x min⁻¹ x 0,01) berechnet. Wie aus der nachstehenden Tabelle 1A ersichtlich ist, reduzieren die Wirksubstanzen dieses Doppelprodukt und führen damit zu einer Sauerstoffeinsparung am Herzen. Tabelle 1A

[2] = mouse, in vivo, po, 300 mg/kg, 1440 min
[3] = anaesthetised rats, 6,6 µmol/kg i.v.
[4] = anaesthetised rats, 2,6 µmol/kg i.v.

Structure (SMILES) | Minimale toxische Dosis (Mäusen; [2]) | EC (FRP 125%) (linken Herzvorhofes) | EC (FRQ 75%) [1] | other results
COc1ccccc1CC1C2CC(CN3CCCCC23)C2CCCCN21 (centres unmarked) [Beispiel 501] | 300 mg/kg | 3.71 µM | 4.69 µM | 
COc1cccc(CC2C3CC(CN4CCCCC34)C3CCCCN32)c1 (centres unmarked) [Beispiel 502, 17-(3-Methoxybenzyl)-spartein] | 300 mg/kg | 6.24 µM | 2.06 µM | Änderung DP (narkotisierten Ratten; change of double product versus pre-dose values, 6,6 µmol/kg i.v.): -29 Prozent; DP (narkotisierten Ratten; [3]): 312 mm Hg/ min x 100; FRQ (narkotisierten Ratten; [3]): 254 min⁻¹; P₅ (narkotisierten Ratten; [3]): 124 mm Hg
c1ccc(CC2C3CC(CN4CCCCC34)C3CCCCN32)cc1 (centres unmarked) [Beispiel 500, 17-Benzylspartein] |  | 3.52 µM | 1.46 µM | Minimale toxische Dosis (Mäusen; p.o., male mice, maximal dose 300 mg/kg, observed 24 h, lowest dose causing death or strong toxic symptoms): >300 mg/kg
Clc1ccccc1CC1C2CC(CN3CCCCC23)C2CCCCN21 (centres unmarked) [Beispiel 505] | 300 mg/kg | 2.17 µM | 0.99 µM | Änderung DP (narkotisierten Ratten; change of double product versus pre-dose values, 2,6 µmol/kg i.v.): -26 Prozent; DP (narkotisierten Ratten; [4]): 376 mm Hg/ min x 100; FRQ (narkotisierten Ratten; [4]): 306 min⁻¹; P₅ (narkotisierten Ratten; [4]): 121 mm Hg
Fc1ccccc1CC1C2CC(CN3CCCCC23)C2CCCCN21 (centres unmarked) [Beispiel 509] | >300 mg/kg | 2.83 µM | 4.09 µM | 
Cc1cccc(CC2C3CC(CN4CCCCC34)C3CCCCN32)c1F (centres unmarked) [Beispiel 523] | 300 mg/kg | 2.69 µM | 0.95 µM | 
Fc1ccc(CC2C3CC(CN4CCCCC34)C3CCCCN32)cc1 (centres unmarked) [Beispiel 511] | >300 mg/kg | 2.47 µM | 5.12 µM | 
Cc1cccc(CC2C3CC(CN4CCCCC34)C3CCCCN32)c1 (centres unmarked) [Beispiel 518] | >300 mg/kg | 2.58 µM | 3.13 µM | 
Cc1ccc(CC2C3CC(CN4CCCCC34)C3CCCCN32)cc1 (centres unmarked) [Beispiel 519] | 300 mg/kg | 3.24 µM | 1.9 µM | 
COc1cccc(CC2C3CC(CN4CCCCC34)C3CCCCN32)c1OC (centres unmarked) [Beispiel 6, 17-(2,3-Dimethoxybenzyl)-spartein] | >300 mg/kg | 3.39 µM | 4.85 µM | 
